The term melting point denotes the temperature, or range, at which the solid turns liquid. Compound `CCc1ccn(Cc2ccccc2O[C@@H]2O[C@H](CO)[C@@H](O)[C@H](O)[C@H]2O)c(=O)c1` [compound 1, 4-ethyl-1-[2-((2S,3R,4S,5S,6R)-3,4,5-trihydroxy-6-hydroxymethyltetrahydropyran-2-yloxy)benzyl]-1H-pyridin-2-one] registered a melting point of 174 °C.

Values taken from patent publication US20070299065A1, “Tetrahydropyran Derivatives as Antidiabetics” (MERCK PATENT GMBH, priority 2004, published 2007).
